Each block holds one molecule with its values, some of them ahead of it.
Experiments:
Cathepsin K [1] = biological target: Cathepsin K (Homo sapiens, UniProt P43235); assay: Inhibition of humanized-rabbit Cathepsin K
Homo sapiens = species: Homo sapiens; assay: Selectivity ratio of IC50 for Cathepsin F (unknown origin) to IC50 for Cathepsin K (unknown origin)
[2] = biological target: Cathepsin (B and K) (Homo sapiens) (UniProt P43235+P07858); assay: Selectivity ratio of IC50 for Cathepsin B (unknown origin) to IC50 for Cathepsin K (unknown origin); format: protein assay
[3] = biological target: Cathepsin (L and K) (Homo sapiens) (UniProt P43235+P07711); assay: Selectivity ratio of IC50 for Cathepsin L (unknown origin) to IC50 for Cathepsin K (unknown origin); format: protein assay
[4] = biological target: Cathepsin (V and K) (Homo sapiens) (UniProt P43235+O60911); assay: Selectivity ratio of IC50 for Cathepsin V (unknown origin) to IC50 for Cathepsin K (unknown origin); format: protein assay
[5] = biological target: Cathepsin (S and K) (Homo sapiens) (UniProt P25774+P43235); assay: Selectivity ratio of IC50 for Cathepsin S (unknown origin) to IC50 for Cathepsin K (unknown origin); format: protein assay
Cathepsin K [6] = biological target: T1, Cathepsin K (Homo sapiens, UniProt P43235); assay: Inhibition of human Cathepsin K
T1 sequence (P43235 whole entry): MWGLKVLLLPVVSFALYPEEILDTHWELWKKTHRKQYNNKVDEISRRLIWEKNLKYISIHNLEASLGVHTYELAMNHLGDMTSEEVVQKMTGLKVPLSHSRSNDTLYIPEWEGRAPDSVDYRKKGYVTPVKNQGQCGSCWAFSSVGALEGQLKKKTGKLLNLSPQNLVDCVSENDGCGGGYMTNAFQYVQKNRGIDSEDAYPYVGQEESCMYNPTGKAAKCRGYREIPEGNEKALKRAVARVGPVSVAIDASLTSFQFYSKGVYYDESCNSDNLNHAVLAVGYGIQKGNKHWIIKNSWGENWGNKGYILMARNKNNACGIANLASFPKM

[7] = Unbound drug concentration in dog cartilage at 15 mg/kg, po for 4 days; format: ADME, organism-based, Canis lupus familiaris, Cartilage tissue; conditions: in vivo, 96 h, time 4 day
Canis familiaris [8] = assay: Anti-osteoarthritic activity in dog assessed as reduction in uCTX-1 level at 0.1 mg/kg, po for 4 days (reference value: 26.9%); format: functional; conditions: Canis lupus familiaris, 96 h, time 4 day
Canis familiaris [9] = assay: Anti-osteoarthritic activity in dog assessed as reduction in uCTX-1 level at 15 mg/kg, po for 4 days (reference value: 26.9%); format: functional; conditions: Canis lupus familiaris, 96 h, time 4 day
[10] = Clearance in rat; format: ADME; conditions: in vivo
[11] = Oral bioavailability in rhesus monkey; format: ADME, organism-based, Macaca mulatta; conditions: in vivo
Canis familiaris [12] = assay: Anti-osteoarthritic activity in dog assessed as reduction in uCTX-1 level at 0.3 mg/kg, po for 4 days (reference value: 26.9%); format: functional; conditions: Canis lupus familiaris, 96 h, time 4 day
[13] = Half life in rhesus monkey; format: ADME, Macaca mulatta; conditions: in vivo
[14] = Oral bioavailability in dog; format: ADME, organism-based, Canis lupus familiaris; conditions: in vivo
[15] = Clearance in dog; format: ADME, Canis lupus familiaris; conditions: in vivo
[16] = Oral bioavailability in rat; format: ADME, organism-based; conditions: in vivo
[17] = Intrinsic clearance in rat liver microsomes; format: ADME, Microsome; conditions: read-out: CLH
[18] = Plasma protein binding in dog assessed as unbound fraction at 15 mg/kg, po for 4 days; format: ADME, organism-based, Canis lupus familiaris; conditions: time 4 day
[19] = Half life in dog; format: ADME, Canis lupus familiaris; conditions: in vivo
[20] = Half life in rat; format: ADME; conditions: in vivo
[21] = Unbound plasma concentration in dog at 15 mg/kg, po for 4 days; format: ADME, organism-based, Canis lupus familiaris; conditions: in vivo, 96 h, time 4 day
[22] = Clearance in rhesus monkey; format: ADME, Macaca mulatta; conditions: in vivo
Canis familiaris [23] = assay: Anti-osteoarthritic activity in dog assessed as reduction in uCTX-1 level at 0.03 mg/kg, po for 4 days (reference value: 26.9%); format: functional; conditions: Canis lupus familiaris, 96 h, time 4 day
[24] = Drug concentration in dog cartilage at 15 mg/kg, po for 4 days; format: ADME, organism-based, Canis lupus familiaris, Cartilage tissue; conditions: time 4 day, read-out: Ct
[25] = Plasma concentration in dog at 15 mg/kg, po for 4 days; format: ADME, organism-based, Canis lupus familiaris; conditions: time 4 day

Cathepsin (V and K) (Homo sapiens), sequence (O60911 whole entry, looked up, one chain of several): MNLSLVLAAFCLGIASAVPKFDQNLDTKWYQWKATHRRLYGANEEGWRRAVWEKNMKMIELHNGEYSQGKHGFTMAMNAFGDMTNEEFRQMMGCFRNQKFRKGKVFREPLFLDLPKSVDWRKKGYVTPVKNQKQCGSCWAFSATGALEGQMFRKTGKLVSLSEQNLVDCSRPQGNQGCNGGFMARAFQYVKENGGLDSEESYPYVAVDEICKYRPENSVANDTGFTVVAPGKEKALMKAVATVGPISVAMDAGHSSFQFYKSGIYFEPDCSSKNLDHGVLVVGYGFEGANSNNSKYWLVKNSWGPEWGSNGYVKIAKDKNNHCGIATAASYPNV
Cathepsin (L and K) (Homo sapiens), sequence (P07711 whole entry, looked up, one chain of several): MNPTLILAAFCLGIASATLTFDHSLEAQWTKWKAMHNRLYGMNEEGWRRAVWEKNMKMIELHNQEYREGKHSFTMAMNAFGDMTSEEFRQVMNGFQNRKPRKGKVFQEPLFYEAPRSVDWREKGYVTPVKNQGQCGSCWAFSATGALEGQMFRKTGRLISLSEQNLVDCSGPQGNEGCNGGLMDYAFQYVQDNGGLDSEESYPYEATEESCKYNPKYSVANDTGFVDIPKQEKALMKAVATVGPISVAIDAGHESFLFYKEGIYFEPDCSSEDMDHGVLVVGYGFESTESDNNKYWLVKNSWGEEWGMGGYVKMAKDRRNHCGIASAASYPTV
Cathepsin (S and K) (Homo sapiens), sequence (P25774 whole entry, looked up, one chain of several): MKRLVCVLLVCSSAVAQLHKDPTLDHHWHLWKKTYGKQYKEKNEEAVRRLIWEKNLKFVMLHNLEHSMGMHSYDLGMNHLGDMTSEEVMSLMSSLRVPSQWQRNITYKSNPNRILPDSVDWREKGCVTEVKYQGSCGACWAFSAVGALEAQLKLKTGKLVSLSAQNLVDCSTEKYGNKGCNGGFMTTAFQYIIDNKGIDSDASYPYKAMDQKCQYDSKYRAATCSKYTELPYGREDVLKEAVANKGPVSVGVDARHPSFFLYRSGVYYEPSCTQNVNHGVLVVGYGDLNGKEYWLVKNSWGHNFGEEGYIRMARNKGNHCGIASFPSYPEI

Ratio IC50 (Homo sapiens): 1180 | IC50 (Cathepsin K [6]): 5.3 nM
SMILES: N#CC1(NC(=O)[C@@H]2CCCC[C@H]2c2nn(CC3CC3)cc2-c2ccc(N3CCS(=O)(=O)CC3)cc2)CC1

Ratio IC50 (Homo sapiens): 716 | CLint scaled [17]: 244 mL/min/kg | IC50 (Cathepsin K [6]): 0.7 nM
SMILES: COc1cccc(-n2cc(-c3ccc(N4CCS(=O)(=O)CC4)cc3)c([C@@H]3CCCC[C@H]3C(=O)NC3(C#N)CC3)n2)c1

Ratio IC50 (Homo sapiens): 1280 | IC50 (Cathepsin K [6]): 6.9 nM
SMILES: N#CC1(NC(=O)[C@@H]2CCCC[C@H]2c2nn(CC(F)(F)F)cc2-c2ccc(N3CCS(=O)(=O)CC3)cc2)CC1

IC50 (Cathepsin K [1]): 0.5 nM | Ratio IC50 (Homo sapiens): 50 | CLint scaled [17]: < 30 mL/min/kg
SMILES: N#CC1(NC(=O)[C@@H]2CC(F)(F)CC[C@H]2c2nn(-c3ccc(F)cc3)cc2-c2ccc(N3CCS(=O)(=O)CC3)cc2)CC1

Ratio IC50 (Homo sapiens): 1000 | CLint scaled [17]: 40.5 mL/min/kg | IC50 (Cathepsin K [6]): 0.5 nM
SMILES: N#CC1(NC(=O)[C@@H]2CCCC[C@H]2c2nn(-c3ccc(F)cc3)cc2-c2ccc(N3CCS(=O)(=O)CC3)cc2)CC1

Further lines, the molecule ahead of its results:

SMILES: N#CC1(NC(=O)[C@@H]2CC(Cl)(Cl)CC[C@H]2c2nn(CC(F)(F)F)cc2-c2ccc(N3CCS(=O)(=O)CC3)cc2)CC1
IC50 (Cathepsin K [1]): 0.5 nM | Ratio IC50 (Homo sapiens): 314

SMILES: N#CC1(NC(=O)[C@@H]2CC(F)(F)CC[C@H]2c2nn(CC(F)(F)F)cc2-c2ccc(-c3ncco3)cc2)CC1
IC50 (Cathepsin K [1]): 1 nM | Ratio IC50 (Homo sapiens): 62

SMILES: CS(=O)(=O)N1CC(c2ccc(-c3cn(CC(F)(F)F)nc3[C@@H]3CCC(F)(F)C[C@H]3C(=O)NC3(C#N)CC3)cc2)C1
IC50 (Cathepsin K [1]): 0.6 nM | Ratio IC50 (Homo sapiens): 82

SMILES: CS(=O)(=O)c1ccc(-c2cn(CC(F)(F)F)nc2[C@@H]2CCC(Cl)(Cl)C[C@H]2C(=O)NC2(C#N)CC2)cc1
Ratio IC50 [2]: 5560 | Ratio IC50 [3]: 1710 | Ratio IC50 (Homo sapiens): 40 | Ratio IC50 [4]: 714 | Ratio IC50 [5]: 1360 | IC50 (Cathepsin K [6]): 1.8 nM

SMILES: N#CC1(NC(=O)[C@@H]2CCCC[C@H]2c2oc(-c3ccc(F)cc3)nc2-c2ccc(N3CCS(=O)(=O)CC3)cc2)CC1
Drug uptake(free) [7]: 0.21 µM | inhibition in vivo at 0.1 mg/kg (Canis familiaris [8]): 47.7% | inhibition in vivo at 15 mg/kg (Canis familiaris [9]): 91.4% | Ratio IC50 [2]: > 20000 | clearance [10]: 13 mL/min/kg | bioavailability [11]: 55% | Ratio IC50 [3]: > 20000 | Ratio IC50 (Homo sapiens): 1460 | Ratio IC50 [4]: > 20000 | inhibition in vivo at 0.3 mg/kg (Canis familiaris [12]): 81.1% | half-life [13]: 2.3 h | bioavailability [14]: 38% | clearance [15]: 3.1 mL/min/kg | bioavailability [16]: 33% | CLint scaled [17]: < 30 mL/min/kg | fraction unbound at 96 h [18]: 0.047 | half-life [19]: 4.1 h | half-life [20]: 1.5 h | Cp(f) [21]: 190 nM | clearance [22]: 18.5 mL/min/kg | Ratio IC50 [5]: > 20000 | inhibition in vivo at 0.03 mg/kg (Canis familiaris [23]): 4.5% | concentration at 96 h [24]: 220 nM | IC50 (Cathepsin K [6]): 0.5 nM | concentration at 96 h [25]: 3980 nM

SMILES: N#CC1(NC(=O)[C@@H]2CC(Cl)(Cl)CC[C@H]2c2nn(CC(F)(F)F)cc2-c2ccc(C(=O)N3CCOCC3)cc2)CC1
IC50 (Cathepsin K [1]): 1 nM | Ratio IC50 (Homo sapiens): 246

SMILES: N#CC1(NC(=O)[C@@H]2CCCC[C@H]2c2nc(-c3ccc(F)cc3)sc2-c2ccc(N3CCS(=O)(=O)CC3)cc2)CC1
Ratio IC50 (Homo sapiens): 1430 | CLint scaled [17]: 55.9 mL/min/kg | IC50 (Cathepsin K [6]): 0.6 nM

SMILES: N#CC1(NC(=O)[C@@H]2CC(F)(F)CC[C@H]2c2nn(CC(F)(F)F)cc2-c2ccc(N3CCS(=O)(=O)CC3)cc2)CC1
Ratio IC50 (Homo sapiens): 380 | IC50 (Cathepsin K [6]): 0.7 nM
